Consider four molecules from patent publication US20200138855A1, “NOVEL ANTINEOPLASTIC DRUG BASED ON SPECIFICITY OF CANCER-CELL METABOLISM” (priority 2017, published 2020).

Structures are written as SMILES. Counter-ions that a name gives are not always drawn.

In assay [1] the test system is recurrent pancreatic cancer (pancreatic body cancer) (Stage IVa). Put plainly: Example 2: case of recurrent pancreatic cancer (pancreatic body cancer). It counts as in vivo, human. From the text:
Patient with recurrent pancreatic cancer (pancreatic body cancer) (Stage IVa)
The patient also had diabetes.

In the next assay the test system is human lung cancer cells. The conditions noted are these: pHi of human lung cancer cells rises from 7.0 to 7.4; cited from earlier work.
The test system of another assay is pancreatic cancer. The conditions noted are these: diabetic patients taking metformin versus those taking no metformin; cited from earlier work.
For assay [2], the system named is colorectal cancer cells having a mutation in KRAS gene and BRAF gene. The conditions noted are these: contact with high-concentration vitamin C; cited from earlier work.

Take `Nc1ccn([C@@H]2O[C@H](CO)[C@@H](O)C2(F)F)c(=O)n1` [Gemzar, gemcitabine]: the “level of tumor marker (CA19-9)” value in assay [1] (Gemzar 800 mg/m^2 every other week alone (Oct-Dec 2016), combination from mid February 2017 (NaHCO3 3 g/day, vitamin C 25 g/day once a week, metformin hydrochloride 250 mg/day)) is “significantly increased”. Also, in assay [1] (middle of December 2016, Gemzar 800 mg/m^2 every other week alone), the MRI inspection result is listed as “suspected to have peritoneal dissemination”.
For `COc1cccc2c1C(=O)c1c(O)c3c(c(O)c1C2=O)C[C@@](O)(C(=O)CO)C[C@@H]3O[C@H]1C[C@H](N)[C@H](O)[C@H](C)O1` [doxorubicin hydrochloride], the “increase of resistance to the anti-cancer agent” value in the assay with human lung cancer cells was 2,000 times.
For the molecule `CN(C)C(=N)NC(=N)N` [metformin], the “reduction of risk of development of pancreatic cancer” value in the assay with pancreatic cancer is recorded as 62%.
Turning to `O=C1O[C@H]([C@@H](O)CO)C(O)=C1O` [vitamin C, L-ascorbic acid], the “effect on the cells” value in assay [2] is “killed”.
